{
  "source": "patent US20050004179A1",
  "about": "“Methods and materials for treating, detecting, and reducing the risk of developing Alzheimer's Disease” (priority 2003, published 2005)",
  "key": {"Tg2576 mice [1]": {"system": "Tg2576 mice", "experiment": "Insulin response: insulin-induced decline in blood glucose levels", "assay_type": "in vivo, mouse", "text": "(§1) Male Tg2576 mice and non-transgenic littermates were purchased from Taconic Farms (Germantown, N.Y.). The Tg2576 mice overexpress the 695-isoform of the human amyloid precursor protein containing a double mutation originally identified in a large Swedish kindred (familial AD); spatial learning and memory deficits are evident at 9-11 months of age, prior to the formation of mature amyloid plaques (Kawarabayashi et al., “Age-Dependent Changes in Brain, CSF, and Plasma Amyloid β Protein in the Tg2576 Transgenic Mouse Model of Alzheimer's Disease,” J. Neurosci., 21:372-381 (2001) and Westerman et al., “The Relationship Between Aβ and Memory in the Tg2576 Mouse Model of Alzheimer's Disease.,” J. Neurosci., 22:1858-1867 (2002), which are hereby incorporated by reference). Mice were individually housed in ventilated microisolator cages.\nInsulin was administered and glucose was measured using the following procedures. A stock of human insulin (recombinant, 28.7 U.S.P. units/mg; Sigma) was prepared by dissolving 1 mg of powder in 1 ml of dH20 containing 1% glacial acetic acid. A 1:150 dilution in dH20 was used as the injection stock. Mice were administered the insulin solution by intraperitoneal injection. […]\nInsulin was administered to non-fasted Tg2576 and wild-type mice at 0.75 U/kg, and blood glucose levels were monitored. […]"}, "Tg2576 mice [2]": {"system": "Tg2576 mice", "experiment": "Stress response: serum corticosterone after overnight fasting", "assay_type": "in vivo, mouse", "details": "FIG. 5", "text": "as §1\nCorticosterone and insulin were measured using the following procedures. For serum preparation, tail bleedings were carried out under a heating lamp, and the blood was collected into MICROTAINER™ Brand Tubes (Becton Dickinson, Franklin Lanes, N.J.). After allowing the blood to clot for 30-40 min, samples were centrifuged for 90 sec at 6000 g and stored at −80° C. until use. Serum corticosterone levels were measured using an enzyme immunoassay kit (Assay Designs, Inc., Ann Arbor, Mich.) with a 1 μl aliquot of each sample diluted 1:100 with assay buffer. The sensitivity of the assay was 26.99 pg/ml. Serum insulin levels were determined using the Ultra Sensitive Rat Insulin ELISA kit (Crystal Chem, Inc., Downers Grove, Ill.) using 5 μl of undiluted sample and mouse insulin standard. The sensitivity of the assay under these conditions was 100 pg/ml. All samples were measured in duplicate for both assays. Plates were read using the Bio-Tek ELx800UV Universal Microplate Reader.\nThe following supplemented diet was used. Tablets of rosiglitazone maleate (Avandia™, GlaxoSmithKline) were provided by the Creighton University Diabetes Center. […]"}, "Tg2576 mice [3]": {"system": "Tg2576 mice", "assay_type": "in vivo", "text": "as §1\nThe following supplemented diet was used. Tablets of rosiglitazone maleate (Avandia™, GlaxoSmithKline) were provided by the Creighton University Diabetes Center. The tablets were pulverized and mixed with the AIN-93G purified rodent diet at a final dose of 30 mg/kg of food (Dyets, Inc.). […]"}, "Tg2576 mice [4]": {"system": "Tg2576 mice", "experiment": "Spatial learning and memory, 8-arm radial maze", "details": "15 weeks on drug-supplemented diet, approximately 4 mg/kg/day, FIG. 6"}, "[5]": {"experiment": "Body weights and food consumption on rosiglitazone-supplemented diet (tolerability)", "assay_type": "in vivo, mouse", "text": "as §1\nThe following supplemented diet was used. Tablets of rosiglitazone maleate (Avandia™, GlaxoSmithKline) were provided by the Creighton University Diabetes Center. The tablets were pulverized and mixed with the AIN-93G purified rodent diet at a final dose of 30 mg/kg of food (Dyets, Inc.). This dose was chosen based on the results of studies in rats using a diet supplemented with rosiglitazone (Diep et al., “Structure, Endothelial Function, Cell Growth, and Inflammation in Blood Vessels of Angiotensin II-Infused Rats: Role of Peroxisome Proliferator-Activated Receptor-γ,” Circulation, 105:2296-2302 (2002), which is hereby incorporated by reference. Unmodified AIN-93G pellets were purchased as the control diet (Dyets, Inc.). The mice were placed on the diets at 9 months of age.\nTo provide evidence for a relationship between insulin resistance and aberrant stress responses of Tg2576 mice, the animals were subjected to a diet containing the thiazolidinedione, rosiglitazone, in order to increase insulin sensitivity. The thiazolidinediones act as agonists of peroxisome proliferator-activated receptor-γ (“PPARγ”), which is a ligand-inducible transcription factor that regulates glucose and lipid metabolism (Desvergne et al., “Peroxisome Proliferator-Activated Receptors: Nuclear Control of Metabolism,” Endocr. Rev., 20:649-688 (1999), which is hereby incorporated by reference). The agonists of PPARγ attenuate insulin resistance by improving peripheral insulin sensitivity, and such agonists are currently being used clinically in the management of type 2 diabetes (Wagstaff et al., “Rosiglitazone: A Review of its Use in the Management of Type 2 Diabetes Mellitus,” Drugs 62:1805-1837 (2002), which is hereby incorporated by reference). […] More particularly, the following Table 1 summarizes body weights and food consumption for wild-type mice on the regular diet (Wt; n=7), Tg2576 mice on the diet supplemented with rosiglitazone maleate (Tr, AV; n=7), and for Tg2576 mice on the regular diet (Tr, C; n=5). Data are reported as means and standard deviations for the indicated weeks."}, "[6]": {"details": "10-month-old Tg2576 mice, supplemented diet 4 weeks"}},
  "data": [
    {"smiles": "CN(CCOc1ccc(CC2SC(=O)NC2=O)cc1)c1ccccn1.O=C(O)/C=C\\C(=O)O", "note": "(centres unmarked) [rosiglitazone, rosiglitazone maleate]", "values": [
      {"measurement": "Insulin response of Tg2576 mice on unsupplemented diet versus Tg2576 mice on supplemented diet", "setting": "Tg2576 mice [1]; 10-month-old Tg2576 mice, 4 weeks on diet, insulin 0.75 U/kg", "value": "much weaker insulin response"},
      {"measurement": "Effect on insulin response (figure legend)", "setting": "Tg2576 mice [1]; FIGS. 4A and 4B, Tg2576 mice, supplemented diet for 4 weeks", "value": "normalizes the insulin response"},
      {"measurement": "Serum corticosterone levels after overnight fasting versus wild-type mice", "setting": "Tg2576 mice [2]; [6]", "value": "not significantly different"},
      {"measurement": "Serum corticosterone levels following overnight fasting versus Tg2576 mice on regular diet", "setting": "Tg2576 mice [2]; [6]", "value": "well below the levels reached in Tg2576 mice on the regular diet"},
      {"measurement": "Effect on stress response (figure legend)", "setting": "Tg2576 mice [2]; Tg2576 mice", "value": "normalizes the stress response"},
      {"measurement": "Deaths in the course of the study", "setting": "Tg2576 mice [3]; 7 Tg2576 mice on rosiglitazone-supplemented diet (2 of 7 on unsupplemented diet died)", "value": "None"},
      {"measurement": "Observed behaviour on handling", "setting": "Tg2576 mice [3]; Tg2576 mice on rosiglitazone-supplemented diet", "value": "calmer and easier to handle"},
      {"measurement": "Number of reference memory errors versus control Tg2576 mice (Tr,C)", "setting": "Tg2576 mice [4]", "value": "fewer than the number of reference memory errors made by Tg2576 not given the drug"},
      {"measurement": "Number of reference memory errors versus wild-type mice", "setting": "Tg2576 mice [4]", "value": "as many reference memory errors as the wild-type mice"},
      {"measurement": "Tolerability of the diet containing rosiglitazone", "setting": "[5]; mice, diet 30 mg/kg of food", "value": "well tolerated"},
      {"measurement": "Amount of rosiglitazone-supplemented food consumed over time", "setting": "[5]; mouse, in vivo", "value": "decreased over time"},
      {"measurement": "Weight of mice, Week 1", "setting": "[5]; mouse, in vivo", "value": "26.3 ± 3.2", "unit": "g"},
      {"measurement": "Weight of mice, Week 4", "setting": "[5]; mouse, in vivo", "value": "26.2 ± 3.1", "unit": "g"},
      {"measurement": "Weight of mice, Week 7", "setting": "[5]; mouse, in vivo", "value": "27.1 ± 3.3", "unit": "g"}
    ]}
  ]
}
